The NIST ThermoML archive (doi:10.1021/je700690q)
± gives the expanded uncertainty stated by the source.

Settings: Liquid, Closed cell (Static) method

| Structure (SMILES) | vapor or sublimation pressure (364.52 K) | also measured |
| --- | --- | --- |
| CC(C)(C)O [2-methylpropan-2-ol] | 143.3 ± 1 kPa | – |
| CCC(C)O (stereo unspecified) [butan-2-ol] | 75.4 ± 0.9 kPa | – |
| CCCO [propan-1-ol] | – | vapor or sublimation pressure (364.53 K): 81.2 ± 0.9 kPa |
| CC(C)O [propan-2-ol] | – | vapor or sublimation pressure (364.51 K): 144.1 ± 1 kPa |

The next lines start with results.

| vapor or sublimation pressure (364.52 K) | Structure (SMILES) | also measured |
| --- | --- | --- |
| 1268.7 ± 5.7 kPa [middle of 5 runs] | C/C=C/C [(E)-2-butene] | – |
| 267.6 ± 1.4 kPa | CO [methanol] | – |
